Patent US10308637B2 (LifeSci Pharmaceuticals, Inc., priority 2015, dated 2019)

Assay: Contact Assay (percentage inhibition from fluorescence intensity)
Format: biochemical
Description: The percentage inhibition was calculated using the following equation:
[formula] where, Mean(BG) is the average value of the fluorescence intensity of the background wells and Mean(PC) is the average value of the fluorescence intensity of the positive control wells.
Table 4 provides the EC50 values of various compounds disclosed herein.

Row | EC50 [nM] | SMILES
1 | ≤ 100 | NC(=O)c1cc(Cc2cc(C(=O)NCc3ccc4c(N)nccc4c3)ccn2)cc2cc(Cl)cnc12 [Example 64, 6-((4-(((1-aminoisoquinolin-6-yl)methyl)carbamoyl)pyridin-2-yl)methyl)-3-chloroquinoline-8-carboxamide]
2 | ≤ 100 | Cc1cnc2c(C(N)=O)cc(Cc3cc(C(=O)NCc4c(C)cc(N)nc4C)ccn3)cc2c1 [Example 77, 6-((4-(((6-amino-2,4-dimethylpyridin-3-yl)methyl)carbamoyl)pyridin-2-yl)methyl)-3-methylquinoline-8-carboxamide]
3 | ≤ 100 | Cc1cnc2c(C#N)cc(Cc3cc(C(=O)NCc4ccc5c(N)nccc5c4)ccn3)cc2c1 [Example 71, N-((1-aminoisoquinolin-6-yl)methyl)-2-((8-cyano-3-methylquinolin-6-yl)methyl)isonicotinamide]
4 | ≤ 100 | Cc1cc(N)nc(C)c1CNC(=O)c1cc(Cc2ccc3ncc(Cl)cc3c2)nc(C(C)(C)O)c1 [Example 210, N-((6-amino-2,4-dimethylpyridin-3-yl)methyl)-2-((3-chloroquinolin-6-yl)methyl)-6-(2-hydroxypropan-2-yl)isonicotinamide]
5 | 100 to 1000 | CC(C)(O)c1cc(Cc2cc(C(=O)NCc3cc4c(Cl)c[nH]c4cc3F)ccn2)cc2cc(Cl)cnc12 [Example 221, N-((3-chloro-6-fluoro-1H-indol-5-yl)methyl)-2-((3-chloro-8-(2-hydroxypropan-2-yl)quinolin-6-yl)methyl)isonicotinamide]
6 | ≤ 100 | Cc1cnc2c(C(N)=O)cc(Cc3cc(C(=O)NCc4cnc5[nH]cc(Cl)c5c4)ccn3)cc2c1 [Example 80, 6-((4-(((3-chloro-1H-pyrrolo[2,3-b]pyridin-5-yl)methyl)carbamoyl)pyridin-2-yl)methyl)-3-methylquinoline-8-carboxamide]
7 | ≤ 100 | Cc1cnc2c(S(C)(=O)=O)cc(Cc3cc(C(=O)NCc4ccc5[nH]cc(Cl)c5c4F)ccn3)cc2c1 [Example 21, N-((3-chloro-4-fluoro-1H-indol-5-yl)methyl)-2-((3-methyl-8-(methylsulfonyl)quinolin-6-yl)methyl)isonicotinamide]
8 | 100 to 1000 | O=C(NCc1n[nH]c2ccc(Cl)cc12)c1ccnc(Cc2ccc3ncc(C4CC4)cc3c2)c1 [Example 249, N-((5-chloro-1H-indazol-3-yl)methyl)-2-((3-cyclopropylquinolin-6-yl)methyl)isonicotinamide]
9 | ≤ 100 | Cc1cc(N)nc(C)c1CNC(=O)c1ccnc(Cc2cnc3ncc(Cl)cc3c2)c1 [Example 204, N-((6-amino-2,4-dimethylpyridin-3-yl)methyl)-2-((6-chloro-1,8-naphthyridin-3-yl)methyl)isonicotinamide]
10 | ≤ 100 | Cc1cc(N)nc(C)c1CNC(=O)c1ccnc(Cc2cc3cc(Cl)cn3cn2)c1 [Example 153, N-((6-amino-2,4-dimethylpyridin-3-yl)methyl)-2-((6-chloropyrrolo[1,2-c]pyrimidin-3-yl)methyl)isonicotinamide]
11 | ≤ 100 | Cc1cc2cc(Cc3cc(C(=O)NCc4c(C)cc(N)nc4C)ccn3)ccc2cn1 [Example 145, N-((6-amino-2,4-dimethylpyridin-3-yl)methyl)-2-((3-methylisoquinolin-6-yl)methyl)isonicotinamide]
12 | 100 to 1000 | O=C(NCc1cc2c(Cl)c[nH]c2cc1F)c1ccnc(Cc2ccc3ncc(C4CC4)cc3c2)c1 [Example 245, N-((3-chloro-6-fluoro-1H-indol-5-yl)methyl)-2-((3-cyclopropylquinolin-6-yl)methyl)isonicotinamide]
13 | ≤ 100 | Nc1nc(C(F)(F)F)n2cc(CNC(=O)c3ccnc(Cc4ccc5ncc(Cl)cc5c4)c3)ccc12 [Example 186, N-((1-amino-3-(trifluoromethyl)imidazo[1,5-a]pyridin-6-yl)methyl)-2-((3-chloroquinolin-6-yl)methyl)isonicotinamide]
14 | ≤ 100 | Cc1cc(N)nc(C)c1CNC(=O)c1cc(Cc2ccc3ncc(Cl)cc3c2)nc(C(N)=O)c1 [Example 208, N^4-((6-amino-2,4-dimethylpyridin-3-yl)methyl)-6-((3-chloroquinolin-6-yl)methyl)pyridine-2,4-dicarboxamide]
15 | ≤ 100 | Cc1cnc2ccc(Cc3cc(C(=O)NCc4c(C)cc(N)nc4C)ccn3)cc2c1 [Example 144, N-((6-amino-2,4-dimethylpyridin-3-yl)methyl)-2-((3-methylquinolin-6-yl)methyl)isonicotinamide]
16 | 100 to 1000 | Cc1nc2c(c(C)c1CNC(=O)c1ccnc(Cc3ccc4ncc(C(F)(F)F)cc4c3)c1)CCN2 [Example 176, N-((4,6-dimethyl-2,3-dihydro-1H-pyrrolo[2,3-b]pyridin-5-yl)methyl)-2-((3-(trifluoromethyl)quinolin-6-yl)methyl)isonicotinamide]
17 | 100 to 1000 | Cc1cc(CN)nc(C)c1CNC(=O)c1ccnc(Cc2ccc3ncc(Cl)cc3c2)c1 [Example 171, N-((6-(aminomethyl)-2,4-dimethylpyridin-3-yl)methyl)-2-((3-chloroquinolin-6-yl)methyl)isonicotinamide]
18 | ≤ 100 | Cc1nc(N)ccc1CNC(=O)c1ccnc(Cc2cc(C(N)=O)c3ncc(Cl)cc3c2)c1 [Example 62, 6-((4-(((6-amino-2-methylpyridin-3-yl)methyl)carbamoyl)pyridin-2-yl)methyl)-3-chloroquinoline-8-carboxamide]
19 | ≤ 100 | Nc1nccc2c(F)c(CNC(=O)c3ccnc(Cc4ccc5ncc(Cl)cc5c4)c3)ccc12 [Example 178, N-((1-amino-5-fluoroisoquinolin-6-yl)methyl)-2-((3-chloroquinolin-6-yl)methyl)isonicotinamide]
20 | 100 to 1000 | O=C(NCc1ccc2[nH]cc(Cl)c2c1F)c1ccnc(Cc2ccc3ncc(C(F)(F)F)cc3c2)c1 [Example 234, N-((3-chloro-4-fluoro-1H-indol-5-yl)methyl)-2-((3-(trifluoromethyl)quinolin-6-yl)methyl)isonicotinamide]
21 | ≤ 100 | Cc1cnc2c(S(C)(=O)=O)cc(Cc3cc(C(=O)NCc4n[nH]c5ccc(Cl)cc45)ccn3)cc2c1 [Example 20, N-((5-chloro-1H-indazol-3-yl)methyl)-2-((3-methyl-8-(methylsulfonyl)quinolin-6-yl)methyl)isonicotinamide]
22 | ≤ 100 | Nc1nccc2cc(CNC(=O)c3ccnc(Cc4ccc5ncc(Cl)cc5c4)c3)ccc12 [Example 179, N-((1-aminoisoquinolin-6-yl)methyl)-2-((3-chloroquinolin-6-yl)methyl)isonicotinamide]
23 | ≤ 100 | CS(=O)(=O)c1cc(Cc2cc(C(=O)NCc3cc4c(Cl)c[nH]c4cc3F)ccn2)cc2cc(Cl)cnc12 [Example 68, N-((3-chloro-6-fluoro-1H-indol-5-yl)methyl)-2-((3-chloro-8-(methylsulfonyl)quinolin-6-yl)methyl)isonicotinamide]
24 | ≤ 100 | Nc1nccc2cc(CNC(=O)c3ccnc(Cc4ccc5ncc(C(F)(F)F)cc5c4)c3)ccc12 [Example 232, N-((1-aminoisoquinolin-6-yl)methyl)-2-((3-(trifluoromethyl)quinolin-6-yl)methyl)isonicotinamide]

Row | SMILES | EC50 [nM]
25 | Cc1nc(N)ccc1CNC(=O)c1ccnc(Cc2cc(F)c3ncc(Cl)cc3c2)c1 [Example 91, N-(6-amino-2-methyl-pyridin-3-ylmethyl)-2-(3-chloro-8-fluoro-quinolin-6-ylmethyl)-isonicotinamide] | ≤ 100
26 | Cc1cc(N)nc(C)c1CNC(=O)c1ccnc(Cc2ccc3ncc(C(F)(F)F)cc3c2)c1 [Example 228, N-((6-amino-2,4-dimethylpyridin-3-yl)methyl)-2-((3-(trifluoromethyl)quinolin-6-yl)methyl)isonicotinamide] | ≤ 100
27 | Cc1cnc2ccc(Cc3cc(C(=O)NCc4ccc5c(N)nccc5c4)ccn3)cc2c1 [Example 142, N-((1-aminoisoquinolin-6-yl)methyl)-2-((3-methylquinolin-6-yl)methyl)isonicotinamide] | ≤ 100
28 | Cc1cc(N)nc(C)c1CNC(=O)c1ccnc(Cc2ccc3ncc(C4CC4)cc3c2)c1 [Example 243, N-((6-amino-2,4-dimethylpyridin-3-yl)methyl)-2-((3-cyclopropylquinolin-6-yl)methyl)isonicotinamide] | ≤ 100
29 | Cc1cc(N)nc(C)c1CNC(=O)c1cc(CO)nc(Cc2ccc3ncc(Cl)cc3c2)c1 [Example 212, N-((6-amino-2,4-dimethylpyridin-3-yl)methyl)-2-((3-chloroquinolin-6-yl)methyl)-6-(hydroxymethyl)isonicotinamide] | ≤ 100
30 | Cc1ccc2cc(Cc3cc(C(=O)NCc4c(C)cc(N)nc4C)ccn3)ccc2n1 [Example 113, N-((6-amino-2,4-dimethylpyridin-3-yl)methyl)-2-((2-methylquinolin-6-yl)methyl)isonicotinamide] | ≤ 100
31 | Cc1ccc2ncc(Cc3cc(C(=O)NCc4ccc5c(N)nccc5c4)ccn3)cc2c1 [Example 115, N-((1-aminoisoquinolin-6-yl)methyl)-2-((6-methylquinolin-3-yl)methyl)isonicotinamide] | ≤ 100
32 | NC(=O)c1cc(Cc2cc(C(=O)NCc3cnc4[nH]cc(Cl)c4c3)ccn2)cc2cc(Cl)cnc12 [Example 61, 3-chloro-6-((4-(((3-chloro-1H-pyrrolo[2,3-b]pyridin-5-yl)methyl)carbamoyl)pyridin-2-yl)methyl)quinoline-8-carboxamide] | 100 to 1000
33 | Cc1cnc2c(C(N)=O)cc(Cc3cc(C(=O)NCc4cc5cc[nH]c5cc4F)ccn3)cc2c1 [Example 83, 6-((4-(((6-fluoro-1H-indol-5-yl)methyl)carbamoyl)pyridin-2-yl)methyl)-3-methylquinoline-8-carboxamide] | 100 to 1000
34 | Cc1nc(N)ccc1CNC(=O)c1ccnc(Cc2ccc3ncc(CC(F)F)cc3c2)c1 [Example 279, N-((6-amino-2-methylpyridin-3-yl)methyl)-2-((3-(2,2-difluoroethyl)quinolin-6-yl)methyl)isonicotinamide] | 100 to 1000
35 | Cc1nc(N)ccc1CNC(=O)c1ccnc(Cc2cc(S(C)(=O)=O)c3ncc(Cl)cc3c2)c1 [Example 69, N-((6-amino-2-methylpyridin-3-yl)methyl)-2-((3-chloro-8-(methylsulfonyl)quinolin-6-yl)methyl)isonicotinamide] | ≤ 100
